According to US20080275036A1, “Prevention and treatment of cardiac conditions” (APT Pharmaceuticals, Inc., priority 2007, published 2008):
“Also recorded” adds a separate entry of the source. Where two headings read alike, the source gives them in different places.

Experiments:
[1] = cited from earlier work; for solubility in polar solvents: ethanol and methanol
[2] = system: isolated guinea pig myocytes; test: Action potential properties in isolated guinea pig myocytes; type: cell-based; details: for action potential duration (effect in words): over the tested concentrations
[3] = cited from earlier work
[4] = system: single ventricular myocytes; test: Unloaded cell shortening (UCS) of single ventricular myocytes; details: 10 μM
[5] = system: single guinea-pig ventricular myocytes; test: Action potential recording in single guinea-pig ventricular myocytes; type: cell-based; details: for action potential duration (effect in words): superfused 10 to 30 minutes
Procedure: Myocytes were isolated after perfusion of the heart with a physiological salt solution containing reduced calcium and 0.8 mg/mL of collagenase Type 1 (Worthington Biochemicals).
Action potentials were recorded from single guinea-pig ventricular myocytes using the standard control conditions and criteria as adopted by CCTT Ltd. (see http://www.cctt.ltd.uk/ap1.htm). Briefly, action potentials were recorded using conventional glass microelectrodes filled with 1 M KMeSO4 and 10 mM KCl. Electrode resistances were in the range of 40 to 60 MΩ. An Axoclamp 2B (Axon Instruments Inc) amplifier was used for electrical recording. Action potentials were continuously stimulated by application of a brief (1-2 ms) current stimuli applied via the intracellular microelectrode in ‘bridge’ mode. Following penetration of the cell with the microelectrode, a stabilisation period of at least 5 min was allowed before recordings were started. The frequency of stimulation was 1 Hz. Recorded signals were digitised at a sampling frequency of 5 kHz and stored for subsequent off line analysis. Action potential signals were continuously monitored online using an oscilloscope (Tektronix digital storage oscilloscope) to check for development of effects of dexrazoxane. All recordings are made at 36±1° C.
The stability of several parameters of the action potential profile (resting potential, action potential amplitude and action potential duration) was ensured before recordings were commenced. Resting potential was measured over a 5-10 ms period before the stimulus artefact and values for the resting potential falling between −75 to −85 mV were taken as normal. Action potential amplitude was measured following the stimulus artefact and values falling between 110 to 130 mV were taken as normal.
All data are presented as mean ±SEM. The effect of dexrazoxane on action potential characteristics was assessed using Student's t-test (MicroSoft Excel) and P<0.05 was taken to indicate statistical significance.
Action potential duration was measured from the peak amplitude of the action potential to 90% repolarisation level (APD90), and values for APD90 falling between 150 to 300 ms were taken as normal. Parameters measured in this study were action potential duration at 40, and 90% repolarisation levels (APD40 and APD90) using Clampfit 9.0.
For each cell, APD40 and APD90 values were calculated in the absence (control) and presence of a drug. As an index of ‘Triangulation’ APD90-APD40, (APD90-40 ms) in the absence (APD90-40 control) and presence of dexrazoxane (APD90-40 drug) were calculated. This was normalised to the starting (control) APD90 to express APD90-40 duration as a % of control APD90. Calculations were made for each cell individually; the values for each drug concentration were then averaged.

[6] = system: isolated guinea pig myocytes; test: Calcium transients in isolated guinea pig myocytes; type: cell-based; details: for calcium transients (effect in words): over the tested concentrations
Procedure: Calcium transients were measured during activation in isolated guinea pig myocytes. […] This increase in calcium transient without an action potential increase indicates an effect on calcium cycling proteins.

[7] = system: isolated, perfused guinea pig heart; test: Perfusion of doxorubicin and dexrazoxane in the isolated, perfused guinea pig heart (Langendorff); details: for % change in MAP duration / % change in QTc / Cardiac rate / Cor flow / LV dp/dt max / LV dpdt (relax) / LV peak systolic pressure / LVEDP / MAP Duration / QTcF: 30 min of perfusion
Procedure: Perfusion studies of doxorubicin and dexrazoxane in the isolated, perfused guinea pig heart were performed similarly as above. The following parameters were recorded continuously: electrocardiogram (ECG), monophasic action potentials (MAP), perfusion pressure, left ventricular pressure and coronary flow. These effects could be related to some modifications of cardiac electrophysiology (changes in PR, QRS, QT and RR intervals, proarrhythmic effects, Torsade de pointes . . . ), of coronary resistance and/or of cardiac contraction or inotropism (contractility or relaxation troubles).
Stock solutions (10^−2M, 3×10^−2M) in H20 for each drug were prepared each day of the experiment and a dilution (1/1000) done in the perfusion buffer in order to get the appropriate concentrations:
The buffer used in the experiment was KREBS-[…] buffer (Sigma K-3753) to which was added sodium bicarbonate (Sigma S5761) 25 mM and calcium chloride dihydrate (Sigma C8106) 1.8 mM.
The ECG (2 electrodes: on the apex and closed to the right auricular) and the MAP (electrode on the epicardium) were recorded. PR, QRS, QT and RR were measured and QTc (Fridericia; QTc=QT/(RR) ⅓ in ms) was calculated.
The coronary flow (mL/min) is indicated by the perfusion pump. In this model, the perfusion pressure was constant.
Diastolic pressure (mmHg), systolic pressure (mmHg), differential pressure (syst-diast) (mmHg), mean pressure (mmHg), dP/dt min (mmHg/sec) dP/dt max (mmHg/sec) and cardiac frequency (beat per minute: BPM) were measured. A modification of the inotropism can be a problem of cardiac contractility (if modified systolic pressure and dP/dt max) or relaxation (if modified diastolic pressure and dP/dt min). From the left ventricular pressure, the following were calculated: heart rate (frequency of cardiac contractions), dP/dt min and dP/dt max. An acquisition unit MP150WSW with Acknowledge software (Biopac, USA) was used to continuously record all the signals (perfusion pressure, coronary flow, left ventricular pressure, ECG and MAP) through a PC computer. In each group (n=4 hearts), increasing concentrations of compound were infused according to the following design:
For each group, the data are expressed as mean ±S.E.M, % of variation compared to D0 and delta variation from D0. PR, QRS, QT and RR are measured on the same period but on a signal which results from 5 cycles.
On all the curves, the mean value is measured on 30 seconds in the last minute of perfusion for the following parameters: […]

[8] = system: Langendorff heart preparations; test: Heart rate variability after total flow occlusion in stable Langendorff heart preparations; details: 10 μM, 30 min
[9] = doxorubicin perfusion, 30 minute time point

SMILES: CC(CN1CC(=O)NC(=O)C1)N1CC(=O)NC(=O)C1 (racemic) [razoxane]
- solubility in 0.1 N HCl ([1]; 0.1 N HCl): sparingly soluble
- solubility in non-polar, organic solvents [1]: practically insoluble
- solubility in polar solvents [1]: slightly soluble

SMILES: C[C@@H](CN1CC(=O)NC(=O)C1)N1CC(=O)NC(=O)C1 [Dexrazoxane, (S)-4,4′-(1-methyl-1,2-ethanediyl)bis-2,6-piperazinedione]
- solubility in 0.1 N HCl ([1]; 0.1 N HCl at 25° C., salt of hydrochloric acid): 35 mg/mL
- solubility in 0.1 N HCl ([1]; 0.1 N HCl): sparingly soluble
- solubility in water ([1]; 25° C.): about 10 mg/ml
- solubility in non-polar, organic solvents [1]: practically insoluble
- solubility in polar solvents [1]: slightly soluble
- APD50 ([2]; 10 μM): 512 ± 47 ms
- APD90 ([2]; 10 μM): 573 ± 43 ms
- Action potentials, Peak amplitude ([2]; 10 μM): 119 ± 2 mV
- Action potentials, Resting potential ([2]; 10 μM): −69 ± 0 mV
- APD50 ([2]; 30 μM): 493 ± 36 ms
- APD90 ([2]; 30 μM): 564 ± 33 ms
- Action potentials, Peak amplitude ([2]; 30 μM): 121 ± 2 mV
- Action potentials, Resting potential ([2]; 30 μM): −68 ± 2 mV
- APD50 ([2]; 100 μM): 548 ± 45 ms
- APD90 ([2]; 100 μM): 619 ± 39 ms
- Action potentials, Peak amplitude ([2]; 100 μM): 124 ± 1 mV
- Action potentials, Resting potential ([2]; 100 μM): −66 ± 1 mV
- action potential duration (effect in words) [2]: without inducing a change
- stability of lyophilized drug without significant decomposition [3]: ~12 months
- amplitude of UCS / contraction (effect in words) ([4]; 27 minutes): did not significantly alter
- peak amplitude of UCS, absolute cell shortening ([4]; 27 minutes, n=3, control 9.4±3.4 μm, P=ns): 10.7±3.2 μm
- UCS as percentage of resting cell length ([4]; n=3, control 8.5±2.7% RCL, P=ns): 8.0±2.0 % RCL
- decrease in APD40 ([5]; 10 μM in superfusion solution, n=3, P<0.005): 18±4%
- APD90-40 duration (index of triangulation) ([5]; 10 μM superfusion): did not significantly alter
- action potential duration (APD90) ([5]; 10 μM, 27 minutes, control 212±9 ms): 168 ± 12 ms
- shortening of APD90 ([5]; 10 μM, perfusion 27 minutes, n=4, P<0.005): 18±3%
- action potential duration (effect in words) ([5]; 10 μM): shortened action potential duration
- action potential duration (effect in words) ([5]; 10 μM, listed as dexrazoxane): shortened action potential duration; also recorded: caused shortening of action potential duration
- APD40 ([5]; 10 μM, control 175±8 ms): 136 ± 15 ms
- Ca^2+ transients, Peak amplitude (ΔF/F0) ([6]; 10 μM): 5.2 ± 0.8 ΔF/F0
- Ca^2+ transients, Peak amplitude (ΔF/F0) ([6]; 30 μM): 5.8 ± 1.0 ΔF/F0
- Ca^2+ transients, Peak amplitude (ΔF/F0) ([6]; 100 μM): 5.1 ± 0.6 ΔF/F0
- calcium transients (effect in words) [6]: dose proportional increase
- % change in MAP duration ([7]; DOX 3 * 10^−5 mM): 0.0%
- % change in QTc ([7]; DOX 3 * 10^−5 mM): −1.7 % change
- Cardiac rate ([7]; DOX 3 * 10^−5 mM): 200 Beats/min
- Cor flow ([7]; DOX 3 * 10^−5 mM): 14.6 mL/min
- LV dp/dt max ([7]; DOX 3 * 10^−5 mM): 1041 mmHg sec^−1
- LV dpdt (relax) ([7]; DOX 3 * 10^−5 mM): −1022 mmHg sec^−1
- LV peak systolic pressure ([7]; DOX 3 * 10^−5 mM): 82 mmHg
- LVEDP ([7]; DOX 3 * 10^−5 mM): 5 mmHg
- MAP Duration ([7]; DOX 3 * 10^−5 mM): 143 ms
- QTcF ([7]; DOX 3 * 10^−5 mM): 237 ms
- % change in MAP duration ([7]; DOX 10^−5 mM): 0%
- % change in QTc ([7]; DOX 10^−5 mM): −2.1 % change
- Cardiac rate ([7]; DOX 10^−5 mM): 203 Beats/min
- Cor flow ([7]; DOX 10^−5 mM): 14 mL/min
- LV dp/dt max ([7]; DOX 10^−5 mM): 1238 mmHg sec^−1
- LV dpdt (relax) ([7]; DOX 10^−5 mM): −1139 mmHg sec^−1
- LV peak systolic pressure ([7]; DOX 10^−5 mM): 94 mmHg
- LVEDP ([7]; DOX 10^−5 mM): 5 mmHg
- MAP Duration ([7]; DOX 10^−5 mM): 139 ms
- QTcF ([7]; DOX 10^−5 mM): 236 ms
- LVEDP (effect in words) ([7]; dexrazoxane added to the doxorubicin perfusion): did not contribute
- QTcF increase by doxorubicin (effect in words) ([7]; dexrazoxane added, both doxorubicin doses): reversed
- coefficient of variation (heart rate variability) at reperfusion ([8]; control 2.9±0.2, n=3, P=ns): 3.3±1.1
- increase of coefficient of variation (heart rate variability) during reperfusion ([8]; reperfusion after 15 min total flow ischemia, n=3): 77%

SMILES: COc1cccc2c1C(=O)c1c(O)c3c(c(O)c1C2=O)C[C@@](O)(C(=O)CO)C[C@@H]3O[C@H]1C[C@H](N)[C@H](O)[C@H](C)O1 [Doxorubicin]
- APD50 ([2]; 30 μM): 553 ± 29 ms
- APD90 ([2]; 30 μM): 626 ± 28 ms
- Action potentials, Peak amplitude ([2]; 30 μM): 120 ± 3 mV
- Action potentials, Resting potential ([2]; 30 μM): −70 ± 3 mV
- APD50 ([2]; 100 μM): 646 ± 26 ms
- Action potentials, Peak amplitude ([2]; 100 μM): 119 ± 2 mV
- Action potentials, Resting potential ([2]; 100 μM): −68 ± 3 mV
- APD50 ([2]; 300 μM): 536 ± 48 ms
- APD90 ([2]; 300 μM): 611 ± 48 ms
- Action potentials, Peak amplitude ([2]; 300 μM): 122 ± 4 mV
- Action potentials, Resting potential ([2]; 300 μM): −69 ± 2 mV
- action potential duration (effect in words) [2]: profound prolongation
- Ca^2+ transients, Peak amplitude (ΔF/F0) ([6]; 30 μM): 3.0 ± 0.7 ΔF/F0
- Ca^2+ transients, Peak amplitude (ΔF/F0) ([6]; 100 μM): 3.1 ± 0.5 ΔF/F0
- Ca^2+ transients, Peak amplitude (ΔF/F0) ([6]; 300 μM): 1.6 ± 0.3 ΔF/F0
- calcium transients (effect in words) [6]: dose related decrease
- % change in MAP duration ([7]; DOX 3 * 10^−5 mM): 13.3%
- % change in QTc ([7]; DOX 3 * 10^−5 mM): 11.9 % change
- Cardiac rate ([7]; DOX 3 * 10^−5 mM): 184 Beats/min
- Cor flow ([7]; DOX 3 * 10^−5 mM): 14.4 mL/min
- LV dp/dt max ([7]; DOX 3 * 10^−5 mM): 887 mmHg sec^−1
- LV dpdt (relax) ([7]; DOX 3 * 10^−5 mM): −922 mmHg sec^−1
- LV peak systolic pressure ([7]; DOX 3 * 10^−5 mM): 93 mmHg
- LVEDP ([7]; DOX 3 * 10^−5 mM): 14 mmHg
- MAP Duration ([7]; DOX 3 * 10^−5 mM): 162 ms
- QTcF ([7]; DOX 3 * 10^−5 mM): 272 ms
- % change in MAP duration ([7]; DOX 10^−5 mM): 2.2%
- % change in QTc ([7]; DOX 10^−5 mM): 1.6 % change
- Cardiac rate ([7]; DOX 10^−5 mM): 217 Beats/min
- Cor flow ([7]; DOX 10^−5 mM): 13.4 mL/min
- LV dp/dt max ([7]; DOX 10^−5 mM): 1277 mmHg sec^−1
- LV dpdt (relax) ([7]; DOX 10^−5 mM): −1173 mmHg sec^−1
- LV peak systolic pressure ([7]; DOX 10^−5 mM): 97 mmHg
- LVEDP ([7]; DOX 10^−5 mM): 7 mmHg
- MAP Duration ([7]; DOX 10^−5 mM): 142 ms
- QTcF ([7]; DOX 10^−5 mM): 247 ms
- LVEDP (effect in words) [7, 9]: marked increase
- QTcF (effect in words) [7, 9]: increased
